Assays:
Assay in all cases: Test C preemergence
Format in all cases: in vivo
[1] = tested on: yellow nutsedge (Cyperus esculentus); details: scale 0 to 100; for pest or weed control at 31 g/ha / pest or weed control at 62 g/ha / pest or weed control at 125 g/ha / pest or weed control at 16 g/ha: Cyperus, pre-emergence, 336 h, read-out: Plant response rating, Nutsedge, Yellow; for pest or weed control at 16 g/ha: 16 g ai/ha
Excerpt: (§1) Seeds of plant species selected from blackgrass (Alopecurus myosuroides), Italian ryegrass (Lolium multiflorum), winter wheat (Triticum aestivum), galium (catchweed bedstraw, Galium aparine), corn (Zea mays), large (Lg) crabgrass (Digitaria sanguinalis), giant foxtail (Setaria faberii), johnsongrass (Sorghum halepense), lambsquarters (Chenopodium album), morningglory (Ipomoea coccinea), yellow nutsedge (Cyperus esculentus), pigweed (Amaranthus retroflexus), ragweed (common ragweed, Ambrosia elatior), soybean (Glycine max), barnyardgrass (Echinochloa crus-galli), oilseed rape (Brassica napus), waterhemp (common waterhemp, Amaranthus rudis), and velvetleaf (Abutilon theophrasti) were planted into a blend of loam soil and sand and treated preemergence with test chemicals formulated in a non-phytotoxic solvent mixture which included a surfactant.
(§2) At the same time, plants selected from these crop and weed species and also chickweed (common chickweed, Stellaria media), kochia (Kochia scoparia), and wild oat (Avena fatua), were planted in pots containing Redi-Earth® planting medium (Scotts Company, 14111 Scottslawn Road, Marysville, Ohio 43041) comprising spaghnum peat moss, vermiculite, wetting agent and starter nutrients and treated with postemergence applications of test chemicals formulated in the same manner. Plants ranged in height from 2 to 18 cm (1- to 4-leaf stage) for postemergence treatments. Treated plants and controls were maintained in a greenhouse for 13 to 15 days, after which time all species were compared to controls and visually evaluated. Plant response ratings, summarized in Table C, are based on a scale of 0 to 100 where 0 is no effect and 100 is complete control. A dash (-) response means no test result.

[2] = tested on: blackgrass (Alopecurus myosuroides); details: scale 0 to 100; for pest or weed control at 31 g/ha / pest or weed control at 62 g/ha / pest or weed control at 125 g/ha / pest or weed control at 16 g/ha: Alopecurus myosuroides, pre-emergence, 336 h, read-out: Plant response rating, Blackgrass; for pest or weed control at 16 g/ha: 16 g ai/ha
Excerpt: as §1, §2

[3] = tested on: oilseed rape (Brassica napus); details: scale 0 to 100; for plant injury at 31 g/ha / plant injury at 62 g/ha / plant injury at 125 g/ha / plant injury at 16 g/ha: Brassica napus, pre-emergence, read-out: Plant response rating, Oilseed Rape; for plant injury at 16 g/ha: 16 g ai/ha
Excerpt: as §1, §2

Compound	pest or weed control at 31 g/ha ([1]; 31 g ai/ha, preemergence)	pest or weed control at 62 g/ha ([1]; 62 g ai/ha, preemergence)	pest or weed control at 125 g/ha ([1]; 125 g ai/ha, preemergence)	pest or weed control at 16 g/ha ([1]; Preemergence)	pest or weed control at 31 g/ha ([2]; 31 g ai/ha, preemergence)	pest or weed control at 62 g/ha ([2]; 62 g ai/ha, preemergence)	pest or weed control at 125 g/ha ([2]; 125 g ai/ha, preemergence)	pest or weed control at 16 g/ha ([2]; Preemergence)	plant injury at 31 g/ha ([3]; 31 g ai/ha, preemergence)	plant injury at 62 g/ha ([3]; 62 g ai/ha, preemergence)	plant injury at 125 g/ha ([3]; 125 g ai/ha, preemergence)	plant injury at 16 g/ha ([3]; Preemergence)	further results
FC(F)(F)c1cnc(Oc2c(Br)cccc2Oc2ncc(Cl)cn2)nc1 [Compound 24]													Plant response rating, Nutsedge, Yellow ([1]; 31 g ai/ha, Preemergence): 10; Plant response rating, Nutsedge, Yellow ([1]; 62 g ai/ha, Preemergence): 10; Plant response rating, Nutsedge, Yellow ([1]; 125 g ai/ha, Preemergence): 30; Plant response rating, Nutsedge, Yellow ([1]; 250 g ai/ha, preemergence): 60; Plant response rating, Blackgrass ([2]; 31 g ai/ha, Preemergence): 60; Plant response rating, Blackgrass ([2]; 62 g ai/ha, Preemergence): 95; Plant response rating, Blackgrass ([2]; 125 g ai/ha, Preemergence): 95; Plant response rating, Blackgrass ([2]; 250 g ai/ha, preemergence): 95; Plant response rating, Oilseed Rape ([3]; 31 g ai/ha, Preemergence): 80; Plant response rating, Oilseed Rape ([3]; 62 g ai/ha, Preemergence): 100; Plant response rating, Oilseed Rape ([3]; 125 g ai/ha, Preemergence): 100; Plant response rating, Oilseed Rape ([3]; 250 g ai/ha, preemergence): 100
N#Cc1cccc(Oc2ncc(Br)cn2)c1Oc1ncc(Cl)cn1 [Compound 5, 3-[(5-bromo-2-pyrimidinyl)oxy]-2-[(5-chloro-2-pyrimidinyl)oxy]benzonitrile]	5%	25%	60%	0%	30%	40%	70%	10%	70%	98%	100%		
N#Cc1cccc(Oc2ncc(Cl)cn2)c1Oc1ccc(Br)cn1 [Compound 15]	0%	0%	25%	0%	0%	10%	80%	0%	98%	100%	100%	25%	
Clc1cnc(Oc2cccc(Br)c2Oc2ncc(Cl)cn2)nc1 [Compound 19, 2,2′-[[3-bromo-1,2-phenylene]bis(oxy)]bis[5-chloropyrimidine]]	5%	20%	55%	0%	40%	90%	95%	30%	85%	98%	100%	30%	
